Test results published in patent US10716797B2, “Steroid alkaloids and compositions and kits thereof” (priority 2013, dated 2020).
Entries after “also recorded” stand apart in the source; their conditions may differ.

Key:
[1] = test system: Staphylococcus aureus ATCC 29213; assay: MIC by microdilution, compound alone or in combination with an aminoglycoside; format: cell-based
Method: (§1) Method. The minimal inhibitory concentrations (MICs), (i.e. lowest concentration of an antimicrobial that will inhibit the visible growth of a microorganism after incubation), of test compounds were determined against the normal or SCV strains of bacterial species from the Firmicutes phylum. Briefly, MICs were determined using the microdilution method in 96-well plates (Clinical and Laboratory Standards Institute (CLSI), 2011). Bacteria were inoculated at ˜10^5-10^6 CFU/mL and incubated at 35° C. for 20 h (normal strains) or 48 h (SCVs) in brain heart infusion (BHI) broth in order to allow SCVs to reach maximal growth as previously described (Mitchell et al., 2012). Then OD595 nm was read on a microplate reader. […] In this example the range of compound concentrations tested was 0.03 to 64 μg/ml using doubling increments. Strain Staphylococcus aureus NewbouldΔhemB (hemB) was also used in the experiments and is a laboratory-derived stable SCV created by the insertion of the macrolide resistance gene ermA in the hemB gene of this strain to create the SCV phenotype (defective electron transport chain and respiratory deficiency) through inactivation of hemin biosynthesis (Brouillette et al., 2004).
The various antibacterial activities of the test compounds against Staphylococcus aureus ATCC 29213, alone or in combination with gentamicin, and alone against the SCV strain hemB are reported in Table 1.

[2] = test system: S. aureus SCV strain NewbouldΔhemB; assay: MIC by microdilution against SCV strain; format: cell-based, Staphylococcus aureus
Method: as §1, with “2004). […]” for “2004).”

[3] = test system: MRSA USA100; assay: MIC by microdilution, alone or in combination, MRSA USA100; format: cell-based, Staphylococcus aureus; conditions: agent used alone
Method: as §1
(§2) In the present Example the range of compound concentrations tested, using doubling increments, was 0.03 to 64 μg/ml for Compound 14 and up to 1024 μg/ml for gentamicin (GEN), kanamycin (KAN) and cefalexin (CEF) when these compounds were used alone. Compound 14 (Cpd 14) was used at a fixed concentration of 4 μg/ml when added to other antibiotics. The combination of CEF and KAN was used in a 3:2 ratio and doubling increments were used to test the antibacterial activity against MRSA in the absence or presence of Compound 14.

[4] = test system: MRSA USA300; assay: MIC by microdilution, alone or in combination, MRSA USA300; format: cell-based, Staphylococcus aureus; conditions: agent used alone
Method: as §1, §2

[5] = test system: S. aureus hemB (SaR2); assay: MIC against tomatidine-resistant SCV mutant SaR2; format: cell-based, Staphylococcus aureus
Method: At each passage, using a microdilution method in 96-well microplates, S. aureus hemB was inoculated at ˜10^5-10^6 CFU/ml and incubated at 35° C. for 48 h. The range of tomatidine concentrations tested was 0.03 to 64 μg/ml using doubling increments. The concentration of gentamicin was fixed at 4 μg/mL when it was used in combination with tomatidine. At each passage, the minimal inhibitory concentrations (MICs) (i.e. lowest concentration of an antimicrobial that inhibits the visible growth of bacteria), of tomatidine was determined. The bacteria used as inoculum for the next passage were from the well preceeding the well showing the MIC (i.e. the well containing half the MIC). At each passage, the population of bacteria serving as the inoculum for the next passage was spread on BHI agar plates and three isolated colonies were collected and frozen until used for whole-genome sequencing.

[6] = test system: Listeria monocytogenes (strain ATCC 13932); assay: Time-kill experiments, Listeria monocytogenes; format: cell-based
Method: Time-kill experiments were performed in order to determine whether the effect of test compounds or the combination with an aminoglycoside on Listeria monocytogenes (strain ATCC 13932) is bacteriostatic (prevents growth) or bactericidal (kills cells).
At several time points during growth at 35° C. (225 RPM), bacteria were sampled, serially diluted and plated on Brain Hearth Infusion agar (BHIA) for colony-forming unit (CFU) determinations (i.e., viable bacterial counts). Plates were incubated for 24 h at 35° C. It represents the results of three independent experiments.

[7] = test system: Listeria monocytogenes ATCC 13932 SCVs; assay: Time-kill experiments, Listeria monocytogenes SCV; format: cell-based; conditions: 8 μg/mL; 8 h and 24 h; hydrochloride
Method: Time-kill experiments were performed in order to determine whether the effect of test compounds on SCVs of bacterial species of the Firmicutes phylum is bacteriostatic (prevents growth) or bactericidal (kills cells).
Listeria monocytogenes ATCC 13932 SCVs were produced by plating a large inoculum (˜10^5 bacterial cells) on brain heart infusion agar (BHIA) plates containing various amounts of gentamicin in order to create a selective pressure for the generation of electron transport-deficient bacteria with the SCV phenotype, which are known to be less susceptible to aminoglycoside antibiotics (e.g., gentamicin). Indeed, aminoglycosides require the proton-motive force in order to penetrate the bacterium (Bryan and Kwan, 1981). As expected, SCV isolates were collected from such selective plates and were then passaged on drug-free medium to assess stability of the SCV phenotype. SCV isolates keeping the SCV phenotype after several passages on drug-free medium were then used for experiments described below.
One of the L. monocytogenes SCV described above was used in time-kill experiments as described in Example 22. […] At some time-points during growth at 35° C. (225 RPM), bacteria were sampled, serially diluted and plated on BHIA for colony-forming unit (CFU) determinations (i.e., viable bacterial counts). Plates were incubated for 48 h at 35° C. […]

[8] = compound tested alone, strain NewbouldΔhemB

In the case of “3-(N-aminoethyl)-aminotomatidine hydrochloride [Compound 14]”, the “potentiaton fold with gentamicin” value ([1]; MIC gentamicin alone / MIC gentamicin with compound at 4 μg/mL) is reported as 4-8 x, the “potentiation / synergy with aminoglycoside (gentamicin) in words” value ([1]; S. aureus ATCC 29213) is reported as “retain the ability to potentiate” and the “activity vs ATCC29213 in words” value ([1]; compound tested alone) is reported as “Active”. The “MIC vs ATCC29213” value ([1]; compound tested alone, hydrochloride) was 8 to 16 µg/mL, the “potentiation activity with gentamicin in words” value ([1]; compound used at 4 μg/mL) was “Moderate-high” and the “Combination MIC vs ATCC29213 (MIC of gentamicin in combination with the compound)” value ([1]; compound used at 4 μg/mL, MIC of gentamicin alone 0.5 μg/mL) was 0.06-0.12. The MIC ([2]; S. aureus hemB (SCV strain NewbouldΔhemB)) was 0.5 µg/mL, the “Activity of the compounds against the SCV strain (class)” value [2, 8] was “Moderate (MIC = 0.5-4 μg/mL: moderate activity)” and the “MIC vs SCV” value [2, 8] was 0.5 to 1 µg/mL. For the same substance, the MIC [3] was 16 µg/mL, the MIC [4] was 16 µg/mL and the “Fold increase in resistance (MIC for mutant / MIC for NewbouldΔhemB)” value ([5]; mutant SaR2) was 8 fold. For the same substance, the MIC ([5]; tomatidine-resistant mutant SaR2) was 4 µg/mL, the “effect in time-kill in combination with gentamicin” value ([6]; 8 μg/ml with 2 μg/ml gentamicin) was “important bactericidal synergy” and the “effect on growth in time-kill (CFU)” value ([6]; used alone at 8 μg/ml) was “reduces the growth”. For the same substance, the “bactericidal effect on L. monocytogenes SCV (CFU)” value [7] was “efficiently kills; also recorded: superior bactericidal activity” and the “solubility in DMSO” value was 26 mg/mL.
